Several values for one entry are separate records, joined by “and”; a condition that tells them apart may be missing. Equal values may be shown once. Inconclusive results and toxic doses are left out. Rule for the calls: active = survival T/C of 150% or more; inactive = T/C below 125% in these data.
System: CD2F1 mice, L1210 leukemia ip, survival T/C
Assay: NCI In Vivo Anticancer Drug Screen. Data for tumor model L1210 Leukemia (intraperitoneal) in CD2F1 (CDF1) mice
Conditions: higher = longer survival
How it was run: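 Activity against a transplanted murine tumor was judged by comparing the compound group with a vehicle group. The outcome in the treated animals was divided by that in the controls.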

[1] = endpoint: mean survival time, dose: 6.25 mg/kg/injection, schedule: Q01DX009 (ip), vehicle: saline with Tween-80
[2] = endpoint: mean survival time, dose: 12.5 mg/kg/injection, schedule: Q01DX009 (ip), vehicle: saline with Tween-80
[3] = endpoint: mean survival time, dose: 25.0 mg/kg/injection, schedule: Q01DX009 (ip), vehicle: saline with Tween-80
[4] = endpoint: mean survival time, dose: 50.0 mg/kg/injection, schedule: Q01DX009 (ip), vehicle: saline with Tween-80
[5] = endpoint: mean survival time, dose: 50.0 mg/kg/injection, schedule: Q04DX002 (ip), vehicle: saline with Tween-80
[6] = endpoint: mean survival time, dose: 100.0 mg/kg/injection, schedule: Q01DX001 (ip), vehicle: saline with Tween-80
[7] = endpoint: mean survival time, dose: 200.0 mg/kg/injection, schedule: Q01DX001 (ip), vehicle: saline with Tween-80
[8] = endpoint: mean survival time, dose: 100.0 mg/kg/injection, schedule: Q01DX001 (ip), vehicle: Klucel (hydroxypropylcellulose) (HPC)
[9] = endpoint: mean survival time, dose: 200.0 mg/kg/injection, schedule: Q01DX001 (ip), vehicle: Klucel (hydroxypropylcellulose) (HPC)
[10] = endpoint: mean survival time, dose: 400.0 mg/kg/injection, schedule: Q01DX001 (ip), vehicle: Klucel (hydroxypropylcellulose) (HPC)
[11] = endpoint: mean survival time, dose: 100.0 mg/kg/injection, schedule: Q04DX003 (ip), vehicle: saline with Tween-80
[12] = endpoint: mean survival time, dose: 200.0 mg/kg/injection, schedule: Q04DX003 (ip), vehicle: saline with Tween-80
[13] = endpoint: mean survival time, dose: 400.0 mg/kg/injection, schedule: Q04DX003 (ip), vehicle: saline with Tween-80
[14] = endpoint: mean survival time, dose: 100.0 mg/kg/injection, schedule: Q01DX009 (ip), vehicle: saline with Tween-80
[15] = endpoint: mean survival time, dose: 200.0 mg/kg/injection, schedule: Q01DX009 (ip), vehicle: saline with Tween-80

Measured: T/C

COCNC(=S)N/N=C/c1ccccn1
inactive: [1] 97 % of control | [2] 100 % of control | endpoint: mean survival time, dose: 12.5 mg/kg/injection, schedule: Q04DX002 (ip), vehicle: saline with Tween-80 94 % of control | [3] 97 % of control | endpoint: mean survival time, dose: 25.0 mg/kg/injection, schedule: Q04DX002 (ip), vehicle: saline with Tween-80 97 % of control | [4] 122 % of control | [5] 97 % of control

CCCCP(=O)(O)O
inactive: [6] 92 % of control | [7] 100 % of control

CC(C)(C)c1cc(C=C(C#N)C#N)cc(C(C)(C)C)c1O
inactive: [8] 87 % of control | [9] 102 % of control | [10] 87 % of control

CC(=O)NC1C=CC(=O)O1 (stereo not given)
inactive: endpoint: mean survival time, dose: 18.75 mg/kg/injection, schedule: Q01DX001 (ip), vehicle: saline 121 % of control | endpoint: mean survival time, dose: 37.5 mg/kg/injection, schedule: Q01DX001 (ip), vehicle: saline 119 % of control

CC(=O)SCC(C)CCl (stereo not given)
inactive: endpoint: mean survival time, dose: 100.0 mg/kg/injection, schedule: Q01DX009 (ip), vehicle: saline 101 % of control | endpoint: mean survival time, dose: 200.0 mg/kg/injection, schedule: Q01DX009 (ip), vehicle: saline 98 % of control | endpoint: mean survival time, dose: 400.0 mg/kg/injection, schedule: Q01DX009 (ip), vehicle: saline 104 % of control

CN(C)N=Nc1ccc(NC=O)cc1
inactive: endpoint: mean survival time, dose: 4.68 mg/kg/injection, schedule: Q01DX009 (ip), vehicle: Klucel (hydroxypropylcellulose) (HPC) 104 % of control | endpoint: mean survival time, dose: 9.37 mg/kg/injection, schedule: Q01DX009 (ip), vehicle: Klucel (hydroxypropylcellulose) (HPC) 115 % of control and 110 % of control

C[S+](C)CCC(N)C(=O)O (stereo not given) (tested in a mixture with another compound)
inactive: endpoint: median survival time, dose: 3.13 mg/kg/injection, schedule: Q04DX002 (ip), vehicle: saline 111 % of control | endpoint: median survival time, dose: 6.25 mg/kg/injection, schedule: Q04DX002 (ip), vehicle: saline 111 % of control | endpoint: median survival time, dose: 12.5 mg/kg/injection, schedule: Q04DX002 (ip), vehicle: saline 111 % of control | endpoint: median survival time, dose: 25.0 mg/kg/injection, schedule: Q04DX002 (ip), vehicle: saline 111 % of control and 108 % of control | endpoint: median survival time, dose: 50.0 mg/kg/injection, schedule: Q04DX002 (ip), vehicle: saline 111 % of control and 94 % of control | endpoint: median survival time, dose: 100.0 mg/kg/injection, schedule: Q04DX002 (ip), vehicle: saline 117 % of control and 100 % of control | endpoint: median survival time, dose: 400.0 mg/kg/injection, schedule: Q04DX002 (ip), vehicle: saline 100 % of control

C=CCOc1ccc(Cl)cc1
inactive: [8] 108 % of control | [9] 92 % of control | [10] 100 % of control

O=C(O)c1ccccc1C(=O)Nc1cccc(Cl)c1
inactive: endpoint: mean survival time, dose: 100.0 mg/kg/injection, schedule: Q04DX003 (ip), vehicle: Klucel (hydroxypropylcellulose) (HPC) 110 % of control | endpoint: mean survival time, dose: 200.0 mg/kg/injection, schedule: Q04DX003 (ip), vehicle: Klucel (hydroxypropylcellulose) (HPC) 93 % of control | endpoint: mean survival time, dose: 400.0 mg/kg/injection, schedule: Q04DX003 (ip), vehicle: Klucel (hydroxypropylcellulose) (HPC) 98 % of control

CC1CC(=O)C2=C(C1)NC(=O)CC2 (stereo not given)
inactive: [11] 90 % of control | [12] 96 % of control | [13] 101 % of control

CC1C2CCC(C2)C1C(=O)O (stereo not given)
inactive: [14] 98 % of control | endpoint: mean survival time, dose: 100.0 mg/kg/injection, schedule: Q04DX003 (ip), vehicle: other 94 % of control | [15] 94 % of control | endpoint: mean survival time, dose: 200.0 mg/kg/injection, schedule: Q04DX003 (ip), vehicle: other 87 % of control | endpoint: mean survival time, dose: 400.0 mg/kg/injection, schedule: Q01DX009 (ip), vehicle: saline with Tween-80 86 % of control | endpoint: mean survival time, dose: 400.0 mg/kg/injection, schedule: Q04DX003 (ip), vehicle: other 90 % of control

NC1=NCN(c2ccc(OCCOc3ccc(NC(=O)CBr)cc3)cc2)C(N)=N1
inactive: endpoint: mean survival time, dose: 37.5 mg/kg/injection, schedule: Q04DX002 (ip), vehicle: saline with Tween-80 96 % of control | endpoint: mean survival time, dose: 75.0 mg/kg/injection, schedule: Q04DX002 (ip), vehicle: saline with Tween-80 96 % of control | endpoint: mean survival time, dose: 150.0 mg/kg/injection, schedule: Q04DX002 (ip), vehicle: saline with Tween-80 90 % of control

CO/C(=N\C(=O)NC1CC(OC(=O)c2ccc(C)cc2)C(COC(=O)c2ccc(C)cc2)O1)NC(=O)c1ccc(C)cc1 (stereo not given)
inactive: [11] 90 % of control

Clc1nnc(-c2ccccc2)s1
inactive: [11] 101 % of control | [12] 91 % of control

CCC(CCC(C)C1CCC2C3CC=C4CC(O)CCC4(C)C3CCC12C)C(C)C (stereo not given) (tested in a mixture with another compound)
inactive: endpoint: mean survival time, dose: 25.0 mg/kg/injection, schedule: Q01DX009 (ip), vehicle: acetone 93 % of control | endpoint: mean survival time, dose: 100.0 mg/kg/injection, schedule: Q01DX009 (ip), vehicle: acetone 87 % of control

NC1=NC(c2ccccc2)N(c2ccc(Cl)cc2)C(N)=N1 (stereo not given)
inactive: [6] 93 % of control | [7] 95 % of control

CC(=O)/C(=N/O)c1ccccc1
inactive: endpoint: mean survival time, dose: 75.0 mg/kg/injection, schedule: Q01DX009 (ip), vehicle: saline with Tween-80 102 % of control | [11] 102 % of control | endpoint: mean survival time, dose: 150.0 mg/kg/injection, schedule: Q01DX009 (ip), vehicle: saline with Tween-80 94 % of control | [12] 102 % of control | [13] 94 % of control

COc1cc(C(C)(C)C)cc(OC)c1C(O)(c1c(OC)cc(C(C)(C)C)cc1OC)c1c(OC)cc(C(C)(C)C)cc1OC
inactive: [1] 100 % of control | [2] 104 % of control | [3] 104 % of control | [4] 102 % of control | [14] 105 % of control | [15] 88 % of control

N#CSCN1C(=O)C=CC1=O
inactive: endpoint: mean survival time, dose: 1.25 mg/kg/injection, schedule: Q01DX009 (ip), vehicle: saline with Tween-80 93 % of control | endpoint: mean survival time, dose: 2.5 mg/kg/injection, schedule: Q01DX009 (ip), vehicle: saline with Tween-80 89 % of control | endpoint: mean survival time, dose: 5.0 mg/kg/injection, schedule: Q01DX009 (ip), vehicle: saline with Tween-80 93 % of control

CC(=O)C1=C(O)C2(O)C(=O)c3c(c(C)c4ccc(C)c(O)c4c3O)CC2C(N)C1=O (stereo not given)
inactive: endpoint: mean survival time, dose: 3.75 mg/kg/injection, schedule: Q01DX009 (ip), vehicle: saline + alcohol 102 % of control and 105 % of control | endpoint: mean survival time, dose: 7.3 mg/kg/injection, schedule: Q01DX009 (ip), vehicle: saline + alcohol 103 % of control | endpoint: mean survival time, dose: 7.5 mg/kg/injection, schedule: Q01DX009 (ip), vehicle: saline + alcohol 107 % of control | endpoint: mean survival time, dose: 15.0 mg/kg/injection, schedule: Q01DX009 (ip), vehicle: saline + alcohol 107 % of control and 108 % of control | endpoint: mean survival time, dose: 30.0 mg/kg/injection, schedule: Q01DX009 (ip), vehicle: saline + alcohol 115 % of control | endpoint: mean survival time, dose: 60.0 mg/kg/injection, schedule: Q01DX009 (ip), vehicle: saline + alcohol 107 % of control and 111 % of control

COc1cc(C2=N/C(=C\c3cc(Br)ccc3O)C(=O)O2)cc(OC)c1OC
inactive: [5] 88 % of control | endpoint: mean survival time, dose: 100.0 mg/kg/injection, schedule: Q04DX002 (ip), vehicle: saline with Tween-80 95 % of control and 100 % of control | endpoint: mean survival time, dose: 200.0 mg/kg/injection, schedule: Q04DX002 (ip), vehicle: saline with Tween-80 96 % of control | endpoint: mean survival time, dose: 400.0 mg/kg/injection, schedule: Q04DX002 (ip), vehicle: saline with Tween-80 88 % of control and 100 % of control

From PubChem BioAssay AID256 (DTP/NCI, 2004)
